In brackets after ≈: the same amount, converted by molar mass.
Columns and labels:
[1] = test system: MIA-induced osteoarthritic rats; assay: Osteoarthritic pain model in rats (MIA), hind limb grip force; type: in vivo, rat; conditions: grip force; for ED50: Rattus norvegicus, po, MIA-induced osteoarthritic rats, p.o., acute dosing, read-out: Acute ED50 (μmol/kg; 95% Cl); for % Efficacy at Reduced Dose, Chronic (BID, 12 days) / % Efficacy at Reduced Dose, Acute: relative to naïve group; for % Efficacy at Reduced Dose, Acute: 1 hour after acute dosing; for analgesic effects following repeated dosing vs acute dosing: BID 12 days, reduced dose
Protocol: Unilateral knee joint osteoarthritis was induced in the rats by a single intraarticular (i.a.) injection of sodium monoiodoacetate (MIA) (Sigma, St. Louis, Mo.) (3 mg in 0.05 mL sterile isotonic saline) into the joint cavity using a 26 G needle under light (2-4%) halothane (Halocarbon Laboratories, River Edge, N.J.) anesthesia [Bove S E, Calcaterra S L, Brooker R M, Huber C M, Guzman R E, Juneau P L, et al. Weight bearing as a measure of disease progression and efficacy of anti-inflammatory compounds in a model of monosodium iodoacetate-induced osteoarthritis. Osteoarthritis Cartilage 2003; 11:821-30]. Following injection, the animals were allowed to recover from the effects of anesthesia (usually 5-10 min) before returning them to their home cages.
MIA-induced nociception can be assessed by measuring differences in weight bearing (WBD) or decrease in grip force (GF) several days to weeks following MIA injection [Bove S E, Calcaterra S L, Brooker R M, Huber C M, Guzman R E, Juneau P L, et al. Weight bearing as a measure of disease progression and efficacy of anti-inflammatory compounds in a model of monosodium iodoacetate-induced osteoarthritis. Osteoarthritis Cartilage 2003; 11:821-30; Fernihough J, Gentry C, Malcangio M, Fox A, Rediske J, Pellas T, et al. Pain related behaviour in two models of osteoarthritis in the rat knee. Pain 2004; 112:83-93].
In addition to weight-bearing differences, grip strength was also assessed in osteoarthritic rats approximately 21 days after MIA injection. Measurements of peak hind limb grip force were conducted by recording the maximum compressive force exerted on the hind limb strain gauge setup, in a commercially available grip force measurement system (Columbus Instruments, Columbus, Ohio). During testing, each rat was gently restrained by grasping around its rib cage and then allowed to grasp the wire mesh frame (10-12 cm^2) attached to the strain gauge. The experimenter then moved the animal in a rostral-to-caudal direction until the grip was broken. Each rat was sequentially tested twice at an approximately 2 min interval to obtain a raw mean grip force […]. These raw mean grip force data were in turn converted to a maximum hind limb compressive force (CFmax) (gram force)/kg body weight for each animal. A group of age-matched naïve animals was added to each experiment and the data obtained from the different dose groups for the compound being tested were compared to the naïve group.
Compound A was dissolved in 100% polyethylene glycol (PEG 400) for oral administration in a 2 mL/kg injection volume. Compounds B, C, and D were dissolved in 10% ethanol, 20% Tween 80 and 70% polyethylene glycol-400 for oral administration in a 2 mL/kg injection volume. All compounds were dosed orally (p.o.) 60 minutes before behavioral testing.
(§1) In the osteoarthritic pain model, animals were dosed twice-daily for 12 days using a dose that was non-efficacious following a single administration (e.g. 3 μmol/kg p.o. for Compound A). The animals were tested 1 hour after acute dosing (p.o.) and on day 12, 1 hour after oral dosing with either vehicle or the test compound.
The analgesic responses were shown as % effect relative to the healthy, untreated rats (naïve group).

[2] = Plasma levels in osteoarthritic rats after acute and repeated dosing; type: in vivo, rat; conditions: for Plasma Levels, Chronic: 1 hour after last dose on 12 days of BID dosing; for EC50: Rattus norvegicus, osteoarthritic rats, acute dosing
Protocol: as §1

Plasma Levels, Chronic ([2]; 12 μmol/kg) [at 12 μmol/kg ng/mL]	EC50 [2] [µg/mL]	Plasma Levels, Chronic ([2]; 10 μmol/kg) [at 10 μmol/kg ng/mL]	Plasma Levels, Chronic ([2]; 5 μmol/kg) [at 5 μmol/kg ng/mL]	Plasma Levels, Chronic ([2]; 15 μmol/kg) [at 15 μmol/kg ng/mL]	SMILES	ED50 [1] [µmol/kg]	% Efficacy at Reduced Dose, Chronic (BID, 12 days) ([1]; 12 μmol/kg p.o. BID 12 days) [%]	% Efficacy at Reduced Dose, Acute ([1]; 12 μmol/kg p.o.) [%]	analgesic effects following repeated dosing vs acute dosing [1]	% Efficacy at Reduced Dose, Chronic (BID, 12 days) ([1]; 10 μmol/kg p.o. BID 12 days) [%]	% Efficacy at Reduced Dose, Acute ([1]; 10 μmol/kg p.o.) [%]	% Efficacy at Reduced Dose, Chronic (BID, 12 days) ([1]; 5 μmol/kg p.o. BID 12 days) [%]	% Efficacy at Reduced Dose, Acute ([1]; 5 μmol/kg p.o.) [%]	% Efficacy at Reduced Dose, Chronic (BID, 12 days) ([1]; 15 μmol/kg p.o. BID 12 days) [%]	% Efficacy at Reduced Dose, Acute ([1]; 15 μmol/kg p.o.) [%]
760	0.915 (≈ 2.31 µM)	–	–	–	C[C@@H]1CN(c2ncccc2Cl)CC=C1C(=O)Nc1ccc(C(F)(F)F)cc1 [B, (3S)-3′-chloro-3-methyl-N-[4-(trifluoromethyl)phenyl]-3,6-dihydro-2H-1,2′-bipyridine-4-carboxamide]	17	80	30	significantly increased	–	–	–	–	–	–
–	1 (≈ 2.45 µM)	217	–	–	CCC1(CC)C[C@@H](NC(=O)Nc2cccc3cnc(C)cc23)c2cc(F)ccc2O1 [D, N-[(4R)-2,2-diethyl-6-fluoro-3,4-dihydro-2H-chromen-4-yl]-N′-(3-methylisoquinolin-5-yl)urea]	26	–	–	significantly increased	62	28	–	–	–	–
–	0.5 (≈ 1.29 µM)	–	86	150	Cc1nc(Nc2cccc3c2C[C@H](O)CC3)oc1-c1ccc(C(F)(F)F)cc1 [C, (2R)-8-({4-methyl-5-[4-(trifluoromethyl)phenyl]-1,3-oxazol-2-yl}amino)-1,2,3,4-tetrahydronaphthalen-2-ol]	14	–	–	significantly increased	–	–	38	15	83	22
